Source: US6413999B1, “Treatment for acute physical insult to the central nervous system” (University of Saskatchewan Technologies Inc., priority 1999, dated 2002)

Columns and labels:
Assay type in all cases: in vivo, rat
[1] = Body weight after spinal cord clip compression injury; conditions: T6 clip compression; OTC 12 mmoles/kg i.p. 30 min after injury, then 4 mmoles/kg every 12 h for five days; pre-surgery 328.3±4.2 g; saline 403.9±9.5 g; P=0.0337
Method: Adult male Wistar rats (˜320 g) were obtained from Charles River Canada and housed in a temperature-regulated animal facility, exposed to a 12 hour light/dark cycle and had free access to food and water. Animals were treated in accordance with the guidelines of the Canadian Council on Animal Care. Prior in surgery, the rats received the analgesic Buprenorphine-hydrochloride subcutaneously at a dose of 0.05 mg/kg and then every 12 hours for the first 72 hours following surgery. Anesthesia was performed with Halothane (5% induction and 1% maintenance). Laminectomy was performed aseptically at T5-T6 to expose the spinal cord. A 5-second clip compression injury was induced at the T6 spinal cord level using a modified Kerr-Lougheed aneurysm clip with a calibrated force of 50 g as described in Rivlin et al. (Surg. Neurol., 9, 39-43, 1979) and Khan et al. (Can. J. Neurol. Sci., 10, 161-165, 1983). For delivery of drug or saline vehicle a sterile catheter was placed subcutaneously running from the dorsum to enter the peritoneal cavity ventrally; this was done before the laminectomy was performed. Thirty minutes following spinal cord compression an initial dose of OTC or phosphate-buffered saline vehicle (“saline”) was delivered intraperitoneally and then subsequent doses were administered every 12 hours for the next five days. […]

[2] = test system: Wistar rats with clip compression injury at the T6 spinal cord level; assay: Spinal cord GSH content after 50 g clip compression injury at T6; conditions: 26 hours following injury and 2 hours following OTC administration; versus saline P=0.0033; FIG. 4
Method: (§1) Adult male Wistar rats (˜320 g) were obtained from Charles River Canada and housed in a temperature-regulated animal facility, exposed to a 12 hour light/dark cycle and had free access to food and water. Animals were treated in accordance with the guidelines of the Canadian Council on Animal Care. Prior in surgery, the rats received the analgesic Buprenorphine-hydrochloride subcutaneously at a dose of 0.05 mg/kg and then every 12 hours for the first 72 hours following surgery. Anesthesia was performed with Halothane (5% induction and 1% maintenance). Laminectomy was performed aseptically at T5-T6 to expose the spinal cord. A 5-second clip compression injury was induced at the T6 spinal cord level using a modified Kerr-Lougheed aneurysm clip with a calibrated force of 50 g as described in Rivlin et al. (Surg. Neurol., 9, 39-43, 1979) and Khan et al. (Can. J. Neurol. Sci., 10, 161-165, 1983). […]
(§2) A total of 54 animals were used to determine the onset of oxidative stress following insult. […] Spinal cord segments were frozen in liquid nitrogen and stored at −80° C. until analyzed.
GSH was measured using 5,5′-dithio-bis(2-nitrobenzoic) acid-derivatization (“DTNB”) followed by HPLC and UV detection. […] The homogenates were centrifuged at 10,000 g for 15 min and supernatants collected, derivatized and analyzed using the Shimadzu reversed-phase HPLC with ultraviolet detection. […]

[3] = test system: Wistar rats with clip compression injury at the T6 spinal cord level; assay: Spinal cord glutathione reductase activity after clip compression injury at T6; conditions: 24 hours following spinal cord injury; T5 (P<0.05), T6, T7, T9 (P<0.01) versus saline vehicle; FIG. 2
Method: as §1, §2
Glutathione reductase was calculated by measuring the disappearance of NADPH (SIGMA (trade-mark)) in the presence of oxidized-glutathione based upon the procedure described by Eklow et al. (Eur. J. Biochem. 138, 459-463 (1984)), as applied in Juurlink et al (Glia 22, 371-378, 1998)).

[4] = test system: Wistar rats with clip compression injury at the T6 spinal cord level; assay: Spinal cord protein carbonyl content after clip compression injury at T6; conditions: 24 hours post-trauma; T5 (P<0.05), T6, T7 (P<0.01), T9 (P<0.05) versus saline; FIG. 3
Method: as §1, with “cord.” for “cord. A 5-second clip compression injury was induced at the T6 spinal cord level using a modified Kerr-Lougheed aneurysm clip with a calibrated force of 50 g as described in Rivlin et al. (Surg. Neurol., 9, 39-43, 1979) and Khan et al. (Can. J. Neurol. Sci., 10, 161-165, 1983).”
as §2
Protein carbonyl content was determined spectrophotometrically using 2,4-dinitrophenylhydrazine (DNPH) to trap carbonyls with the adduct formed measured at 360 nm. Results are expressed as pmoles of DNPH incorporated per mg of protein calculated using a molar absorption coefficient of 22,000 M^−1 cm^−1 for aliphatic hydrazones.

[5] = test system: rats with acute physical insult to the CNS; assay: Inflammation (observation, ICAM-1 and iNOS levels) following insult; conditions: OTC following insult, compared to saline-treated controls
Method: Inflammation was assessed by observation and by measurement of ICAM-1 and iNOS levels. A significant increase in inflammation was observed following insult.

[6] = test system: Wistar rats with clip compression injury at the T6 spinal cord level; assay: Functional recovery after spinal cord compression (angleboard, modified Tarlov score, BBB scale)
Method: as §1, with “cord.” for “cord. A 5-second clip compression injury was induced at the T6 spinal cord level using a modified Kerr-Lougheed aneurysm clip with a calibrated force of 50 g as described in Rivlin et al. (Surg. Neurol., 9, 39-43, 1979) and Khan et al. (Can. J. Neurol. Sci., 10, 161-165, 1983).”
A semiquantitative assessment of hindlimb function during open field walking gas performed using the modified Tarlov score (Tariq et al.). Spontaneous activity of hind limb was scored as follows: 0=total paraplegia of hindlimbs; 1=no spontaneous movements but responds to hindlimb pinch; 2=spontaneous movement; 3=able to support weight but unable to walk; 4=walks with gross deficit; 5=walks with mild deficit on broad flat surface, 6=able to walk on broad flat surface and support weight on a 1.8 cm wide ledge; 7=walks on ledge. […]

[7] = test system: Wistar rats with clip compression injury at the T6 spinal cord level; assay: Spinal cord histomorphometry (luxol fast blue white matter) 6 weeks after injury
Method: as §1, with “cord.” for “cord. A 5-second clip compression injury was induced at the T6 spinal cord level using a modified Kerr-Lougheed aneurysm clip with a calibrated force of 50 g as described in Rivlin et al. (Surg. Neurol., 9, 39-43, 1979) and Khan et al. (Can. J. Neurol. Sci., 10, 161-165, 1983).”
Following 6 weeks of behavioral evaluation, the spinal cords were fixed by transcardial perfusion with 0.03M phosphate-buffered saline (pH 7.4) containing 1% sodium nitrite in rats anesthetized with Halothane, followed by perfusion (100 ml/100 g) with either 4% formaldehyde (freshly prepared from paraformaldehyde) or FAM solution (formaldehyde, acetic acid and methanol in 1:1:8 ratio) and left in the same fixative for 5 days. […] Area of white matter was quantified using Northern Eclipse™ software and expressed in pixels.

[8] = test system: rats with unilateral carotid artery ligation and 12% oxygen atmosphere; assay: Vascular event model (unilateral carotid artery ligation plus 12% oxygen): brain damage and GSH
Method: Nine to eleven week old rats were obtained and housed as described in Example 1A. Animals were treated in accordance with the guidelines of the Canadian Council on Animal Care.
The rats were randomly divided into two groups. Both groups of rats underwent unilateral carotid artery ligation and were then subjected to a 12% oxygen atmosphere for 35 minutes. Fifteen minutes after insult, rats of one group received an initial dose of OTC (12 mmoles/kg body weight) and rats of the other group receive the phosphate-buffered saline vehicle (“saline”). Rats received subsequent doses of OTC (4 mmoles/kg body weight) or saline, as appropriate, every 12 hours for 3 days.
Rats were sacrificed 1 week following insult and brain damage was assessed.
Brain damage following a vascular event was assessed using the method of Thornhill, et al. (Brain Res. 825(1-2):36-45 (1999).

## O=C1N[C@H](C(=O)O)CS1 [OTC, L-2-oxothiazolidine-4-carboxylate]
[1]
  weight of animals 6 weeks after surgery: 434.3 ± 9.3 g
[2]
  GSH levels in the affected CNS region: increased GSH levels
[3]
  glutathione reductase activity in spinal cord: significantly inhibited the decrease in glutathione reductase activity
[4]
  protein carbonyl content in spinal cord: significantly decreased protein carbonyl formation
[5]
  levels of inflammation (ICAM-1 and iNOS): lower levels of inflammation
[6]; 6 weeks after trauma, scale 0-7, after trauma 1, saline 2.4, FIG. 8a
  modified Tarlov score: 4.1
[6]; 6 weeks recovery, before insult 59°, after insult 28°, saline 32°, FIG. 7
  angleboard capacity angle: 42 °
[7]
  grey matter sparing at T6: did not result in grey matter sparing
[8]; 1 week following insult, OTC 12 mmoles/kg 15 min after insult, then 4 mmoles/kg every 12 h for 3 days, saline score 2.67, FIG. 9
  brain damage score: 1.86
[8]; insult by a vascular event, compared to saline-treated animals
  concentrations of GSH in the affected CNS regions: higher concentrations of GSH
